Test results published in PubChem BioAssay (NCI).
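Each compound was tested at five concentrations against cells in 96-well plates for 48 hours. GI50: concentration for 50% inhibition of growth. TGI: total growth inhibition.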

Assays:
Assay in all cases: DTP human tumour cell line panel, 48 h
COLO 205 colon = test system: COLO 205 colon
IGROV1 ovarian = test system: IGROV1 ovarian
ACHN renal = test system: ACHN renal
SF-539 CNS = test system: SF-539 CNS
A549 NSCLC = test system: A549 NSCLC
NCI-H23 lung = test system: NCI-H23 lung
HCC-2998 colon = test system: HCC-2998 colon
OVCAR-5 ovarian = test system: OVCAR-5 ovarian
NCI-H226 lung = test system: NCI-H226 lung
MDA-MB-435 = test system: MDA-MB-435

Structure (SMILES): O=C(NO)c1coc2ccccc2c1=O
- TGI (COLO 205 colon): > 100 µM
- TGI (IGROV1 ovarian): > 100 µM
- TGI (ACHN renal): > 100 µM
- TGI (SF-539 CNS): > 100 µM
- TGI (A549 NSCLC): > 100 µM
- TGI (NCI-H23 lung): > 100 µM
- TGI (HCC-2998 colon): > 100 µM
- TGI (OVCAR-5 ovarian): > 100 µM

Structure (SMILES): COP(C)(=O)/C(Cc1ccccc1)=N\O (stereo not drawn)
- TGI (COLO 205 colon): > 100 µM
- TGI (NCI-H226 lung): > 100 µM
- TGI (IGROV1 ovarian): > 100 µM
- TGI (ACHN renal): > 100 µM
- TGI (A549 NSCLC): > 100 µM
- TGI (MDA-MB-435): > 100 µM
- TGI (NCI-H23 lung): > 100 µM
- TGI (HCC-2998 colon): > 100 µM
- TGI (OVCAR-5 ovarian): > 100 µM

Structure (SMILES): Cc1csc2nc(-c3ccc([N+](=O)[O-])cc3)c(/C=N/N=C(N)N)n12
- TGI (COLO 205 colon): 2.96 µM
- TGI (IGROV1 ovarian): 2.75 µM
- TGI (ACHN renal): 2.71 µM
- TGI (SF-539 CNS): 3.08 µM
- TGI (A549 NSCLC): 3.2 µM
- TGI (MDA-MB-435): 3.16 µM
- TGI (NCI-H23 lung): 3.2 µM
- TGI (HCC-2998 colon): 1.59 µM
- TGI (OVCAR-5 ovarian): 2.85 µM

Structure (SMILES): CCOc1ccc2c(c1)/C(=C(\C(Cl)=C(Cl)Cl)[N+](=O)[O-])N2
- TGI (COLO 205 colon): > 100 µM
- TGI (NCI-H226 lung): > 100 µM
- TGI (ACHN renal): > 100 µM
- TGI (SF-539 CNS): > 100 µM
- TGI (A549 NSCLC): > 100 µM
- TGI (MDA-MB-435): > 100 µM
- TGI (NCI-H23 lung): > 100 µM
- TGI (HCC-2998 colon): > 100 µM
- TGI (OVCAR-5 ovarian): > 100 µM

Structure (SMILES): c1ccc(C2SCC3=Nc4ccccc4CN32)cc1 (stereo not drawn)
- TGI (COLO 205 colon): > 100 µM
- TGI (SF-539 CNS): 99.2 µM
- TGI (A549 NSCLC): > 100 µM
- TGI (MDA-MB-435): > 100 µM
- TGI (NCI-H23 lung): 62.3 µM
- TGI (HCC-2998 colon): > 100 µM
- TGI (OVCAR-5 ovarian): > 100 µM

Structure (SMILES): O=C(O)CSc1cc(-c2ccccc2)nc2ccccc12
- TGI (IGROV1 ovarian): > 100 µM
- TGI (ACHN renal): > 100 µM
- TGI (A549 NSCLC): > 100 µM
- TGI (MDA-MB-435): 38 µM
- TGI (NCI-H23 lung): > 100 µM
- TGI (OVCAR-5 ovarian): > 100 µM

Structure (SMILES): CC(=O)O[C@H]1CC[C@]2(C)[C@H]3CC[C@@H]4[C@H]5[C@H](C(C)C)CC[C@]5(C(=O)OCC(CO)(CO)N=C(N)N)CC[C@@]4(C)[C@]3(C)CC[C@H]2C1(C)C
- GI50 (COLO 205 colon): 1.88 µM
- TGI (COLO 205 colon): 3.55 µM
- GI50 (ACHN renal): 1.8 µM
- TGI (ACHN renal): 3.26 µM
- GI50 (SF-539 CNS): 1.83 µM
- TGI (SF-539 CNS): 3.34 µM
- GI50 (A549 NSCLC): 1.71 µM
- TGI (A549 NSCLC): 3.28 µM
- GI50 (MDA-MB-435): 1.64 µM
- TGI (MDA-MB-435): 3.11 µM
- GI50 (OVCAR-5 ovarian): 1.67 µM
- TGI (OVCAR-5 ovarian): 3.09 µM

Structure (SMILES): CC(=O)[O-].CC(=O)[O-].O=C(N/N=C/c1cc(Cl)cc(Cl)c1[OH2+])c1ccncc1.[Co+2]
- TGI (COLO 205 colon): > 100 µM
- TGI (NCI-H226 lung): > 100 µM
- TGI (IGROV1 ovarian): > 100 µM
- TGI (ACHN renal): > 100 µM
- TGI (SF-539 CNS): > 100 µM
- TGI (A549 NSCLC): > 100 µM
- TGI (NCI-H23 lung): > 100 µM
- TGI (HCC-2998 colon): > 100 µM
- TGI (OVCAR-5 ovarian): > 100 µM

Structure (SMILES): CC[N+]1(C)CCC(O)(c2ccc(Cl)cc2)C(C(=O)c2ccc(Cl)cc2)C1 (stereo not drawn)
- TGI (COLO 205 colon): 23.8 µM
- TGI (NCI-H226 lung): 48.3 µM
- TGI (IGROV1 ovarian): 47.9 µM
- TGI (ACHN renal): 33.5 µM
- TGI (MDA-MB-435): 40.6 µM
- TGI (NCI-H23 lung): 38.5 µM
- TGI (HCC-2998 colon): 36.3 µM
- TGI (OVCAR-5 ovarian): 33.1 µM

Structure (SMILES): Cc1nc2c(o1)C(=O)c1ccccc1/C2=N/c1ccccn1
- TGI (COLO 205 colon): > 100 µM
- TGI (IGROV1 ovarian): 51.4 µM
- TGI (ACHN renal): 39.8 µM
- TGI (SF-539 CNS): 33.2 µM
- TGI (A549 NSCLC): > 100 µM
- TGI (MDA-MB-435): 31.9 µM
- TGI (NCI-H23 lung): 23.6 µM
- TGI (HCC-2998 colon): > 100 µM
- TGI (OVCAR-5 ovarian): 32.4 µM

Structure (SMILES): Cc1ccc(/C=C/C(=O)c2c([O-])on[n+]2-c2ccccc2)cc1
- TGI (COLO 205 colon): 7.35 µM
- TGI (NCI-H226 lung): > 45.6 µM
- TGI (IGROV1 ovarian): 8.67 µM
- TGI (ACHN renal): 3.55 µM
- TGI (SF-539 CNS): 12.7 µM
- TGI (A549 NSCLC): 25 µM
- TGI (NCI-H23 lung): 17.5 µM
- TGI (HCC-2998 colon): 4.15 µM
- TGI (OVCAR-5 ovarian): 15.5 µM

Structure (SMILES): CCOP(=O)(Nc1ccc(-c2ccccc2)cc1)OCC
- TGI (COLO 205 colon): > 100 µM
- TGI (IGROV1 ovarian): > 100 µM
- TGI (ACHN renal): > 100 µM
- TGI (A549 NSCLC): > 100 µM
- TGI (MDA-MB-435): > 100 µM
- TGI (NCI-H23 lung): > 100 µM
- TGI (HCC-2998 colon): > 100 µM
- TGI (OVCAR-5 ovarian): > 100 µM
